This note sets out measurements from ChEMBL document CHEMBL5550168, “Structure-based design of multitargeting ChEs-MAO B inhibitors based on phenyl ring bioisosteres: AChE/BChE selectivity switch and drug-like characterization” (Eur J Med Chem, 2024).

Each structure is given as a SMILES string.

The nature of data set [1]: Chromatographic hydrophobicity index of compound at pH 2.0 by reversed-phase HPLC analysis. Format: ADME.
Data set [2] in a line: Chromatographic hydrophobicity index of compound at pH 10.5 by reversed-phase HPLC analysis. Format: ADME.
Data set [3] is described as follows: Chromatographic hydrophobicity index of compound at pH 7.4 by reversed-phase HPLC analysis. Format: ADME.
Data set [4] is described as follows: Permeability of the compound assessed as membrane retention. Format: ADME.
A short description of data set [5]: Metabolic stability in mouse liver microsomes assessed as half life at 0.5 uM measured upto 30 mins in presence of NADPH by LC-MS/MS analysis. Format: ADME, Microsome. For orientation: Liver microsomes are a subcellular fraction often used to study metabolism.
Data set [6] is described as follows: Metabolic stability in mouse liver microsomes assessed as intrinsic clearance at 0.5 uM measured upto 30 mins in presence of NADPH by LC-MS/MS analysis. Format: ADME, Microsome. To be noted: read-out: CLH.
A short description of data set [7]: in vitro. To be noted: mouse.

What is called half-life is the time in which the quantity being followed falls by half. What is called Papp is a coefficient for how fast a substance crosses the barrier. High values mean fast passage, low ones slow passage.

With `CN(Cc1ccc(COc2ccc3c(CO)cc(=O)oc3c2)cc1)Cc1cscn1`, the figures for the CHI in data set [1], in data set [2] and in data set [3] were 42.2, 69.9 and 68.3, respectively.

Consider `CN(Cc1ccc(COc2ccc3c(CO)cc(=O)oc3c2)cc1)Cc1nccs1`, for which the results for the CHI in data set [1], in data set [2] and in data set [3] were 42.7, 76.1 and 76.7, respectively.

Regarding `CN(Cc1ccc(COc2ccc3c(CO)cc(=O)oc3c2)cc1)Cc1ccco1`, the CHI in data set [1] is 47.2; in data set [2] it was 85.1; in data set [3], 83.5.

Take `CN(Cc1ccncc1)Cc1ccc(COc2ccc3c(CO)cc(=O)oc3c2)cc1`: the CHI in data set [1] was 32.3; in data set [2], 72.

On to `CN(CCc1cccs1)Cc1ccc(COc2ccc3c(CO)cc(=O)oc3c2)cc1`, for which the CHI in data set [1] turned out to be 53.7; in data set [2] it was 97.8; in data set [3], 92.9.

For `CN(Cc1ccc(COc2ccc3c(CO)cc(=O)oc3c2)cc1)Cc1ncc[nH]1`, the results for the CHI in data set [1], in data set [2] and in data set [3] were 34.6, 50.7 and 51.6, respectively. In addition, in data set [4], the R% is given as ~ 50%.

Consider `CN(Cc1ccccc1)Cc1ccc(COc2ccc3c(CO)cc(=O)oc3c2)cc1`, for which the values for the CHI in data set [1], in data set [2] and in data set [3] were 53, 102.1 and 98, respectively.

For `CN(CCc1cccnc1)Cc1ccc(COc2ccc3c(CO)cc(=O)oc3c2)cc1`, the CHI in data set [1] was 29.9; in data set [2], 69.3; in data set [3], 65.3. Besides, in data set [5], the half-life at 0.5 µM was found to be 5.97 min. Further, the microsomal CLint at 0.5 µM in data set [6] turned out to be 233 µL/min/mg.

Regarding `CN(Cc1ccc(COc2ccc3c(CO)cc(=O)oc3c2)cc1)Cc1ccsc1`, the CHI is on record as 50.7 in data set [1], 95 in data set [2] and 90.3 in data set [3]. The half-life at 0.5 µM in data set [5] was 22.7 min. Besides, the microsomal CLint at 0.5 µM in data set [6] stood at 61.2 µL/min/mg. In data set [7], this compound returned a Papp at 2 h, 20 µM of 80 nm/s.

With `CN(CCc1ccsc1)Cc1ccc(COc2ccc3c(CO)cc(=O)oc3c2)cc1`, the CHI in data set [1] was 54.3; in data set [2] it was 95.2; in data set [3], 85.5. The half-life at 0.5 µM in data set [5] amounted to 13.5 min. Moreover, the microsomal CLint at 0.5 µM in data set [6] was determined as 103 µL/min/mg. This compound showed a Papp at 2 h, 20 µM in data set [7] of 59 nm/s.

On to `CN(Cc1ccc(COc2ccc3c(CO)cc(=O)oc3c2)cc1)Cc1cncnc1`, for which the values for the CHI in data set [1], in data set [2] and in data set [3] were 35.9, 61.4 and 62.6, respectively.

Take `CN(Cc1ccc(COc2ccc3c(CO)cc(=O)oc3c2)cc1)Cc1cccnc1`: the CHI in data set [1] is 32.9; in data set [2], 70.9; in data set [3], 70.6.

As for `CN(Cc1ccc(COc2ccc3c(CO)cc(=O)oc3c2)cc1)Cc1cccs1`, the results for the CHI in data set [1], in data set [2] and in data set [3] were 50.4, 98 and 96.5, respectively.
